The values that follow come from US11225565B2, “Purification of sugammadex” (SYNTHON B.V., priority 2018, dated 2022).

Data set [1] can be described thus: Osmolality of sugammadex solution in water (OSMOMAT 3000, freezing point comparison). The class given is physicochemical. As to conditions: concentration 108 mg/ml. On the procedure:
Osmolality was measured using OSMOMAT 3000 (Gonotec), a solution (concentration 108 mg/ml) of sugammadex in water was used. The osmolality of the solution was obtained by comparison of freezing point of the sugammadex solution and the freezing point of water.

Data set [2] can be described thus: Sodium content of sugammadex samples by potentiometric titration with HClO4. It counts as physicochemical. Conditions: sugammadex solution in glacial acetic acid, 3 mg/ml, titrated with 0.1 M HClO4. On the procedure: The sodium content was obtained by titration of sugammadex solution in glacial acetic acid (concentration 3 mg/ml) using 0.1 M solution of HClO4 using Titrator 794 DMS Titrino, Metrohm. The endpoint (VEQ) was determined potentiometrically.

Substance “6A,6B,6C,6D,6E,6F,6G,6H-Octakis-S-(2-carboxyethyl)-6A,6B,6C,6D,6E,6F,6G-octasulfanyl-gamma-cyclodextrin octasodium salt [Example 1]” registered an Osmolality in data set [1] of 322 mOsmol/kg. Also, in data set [2], the “Sodium content % (wt/wt) based on amount of sugammadex” value (from here on “Sodium content % (wt/wt) based”) is given as 8.5 % (wt/wt).

For “6A,6B,6C,6D,6E,6F,6G,6H-Octakis-S-(2-carboxyethyl)-6A,6B,6C,6D,6E,6F,6G-octasulfanyl-gamma-cyclodextrin octasodium salt [Example 2]”, the Osmolality in data set [1] was 320 mOsmol/kg. Besides, the “Sodium content % (wt/wt) based” value in data set [2] is 8.5 % (wt/wt).

Consider “6A,6B,6C,6D,6E,6F,6G,6H-Octakis-S-(2-carboxyethyl)-6A,6B,6C,6D,6E,6F,6G-octasulfanyl-gamma-cyclodextrin octasodium salt [Example 3]”, for which the Osmolality in data set [1] was found to be 349 mOsmol/kg. Further, the “Sodium content % (wt/wt) based” value in data set [2] is on record as 8.5 % (wt/wt).

“6A,6B,6C,6D,6E,6F,6G,6H-Octakis-S-(2-carboxyethyl)-6A,6B,6C,6D,6E,6F,6G-octasulfanyl-gamma-cyclodextrin octasodium salt [Example 4 of WO2017144734 application, reference compound]” registered an Osmolality in data set [1] of 986 mOsmol/kg. Moreover, the “Sodium content % (wt/wt) based” value in data set [2] is recorded as 11.14 % (wt/wt).

“6A,6B,6C,6D,6E,6F,6G,6H-Octakis-S-(2-carboxyethyl)-6A,6B,6C,6D,6E,6F,6G-octasulfanyl-gamma-cyclodextrin octasodium salt [Example 4]” registered an Osmolality in data set [1] of 346 mOsmol/kg. In data set [2], the “Sodium content % (wt/wt) based” value was 8.5 % (wt/wt).

With “6A,6B,6C,6D,6E,6F,6G,6H-Octakis-S-(2-carboxyethyl)-6A,6B,6C,6D,6E,6F,6G-octasulfanyl-gamma-cyclodextrin octasodium salt [Example 5]”, the Osmolality in data set [1] is on record as 335 mOsmol/kg. For the same substance, in data set [2], the “Sodium content % (wt/wt) based” value was 8.5 % (wt/wt).

In data set [1], “6A,6B,6C,6D,6E,6F,6G,6H-Octakis-S-(2-carboxyethyl)-6A,6B,6C,6D,6E,6F,6G-octasulfanyl-gamma-cyclodextrin octasodium salt [Example 6]” showed an Osmolality of 348 mOsmol/kg. The “Sodium content % (wt/wt) based” value in data set [2] was 8.5 % (wt/wt).
